Assay results from the NIST ThermoML archive (doi:10.1021/je500395f).

Settings: Fluid (supercritical or subcritical phases), Coaxial cylinder method

CCC [propane]
Settings | thermal conductivity [W/m/K]
371.05 K, 4555 kPa | 0.06855
371.05 K, 4560 kPa | 0.06824
371.05 K, 4590 kPa | 0.06782
371.05 K, 4715 kPa | 0.06718
371.05 K, 4720 kPa | 0.06705
371.05 K, 4840 kPa | 0.06668
371.05 K, 5000 kPa | 0.06707
371.05 K, 5200 kPa | 0.06747
371.05 K, 5350 kPa | 0.06773
371.05 K, 5672 kPa | 0.06829
371.05 K, 6100 kPa | 0.06917
371.05 K, 6200 kPa | 0.06927
371.05 K, 6800 kPa | 0.06996
371.05 K, 7500 kPa | 0.07147
371.05 K, 8500 kPa | 0.07339
371.05 K, 8900 kPa | 0.07424
371.05 K, 9500 kPa | 0.07498
371.05 K, 11600 kPa | 0.07756
371.97 K, 3025 kPa | 0.03301
371.97 K, 3070 kPa | 0.03313
371.97 K, 3701 kPa | 0.03655
371.97 K, 3803 kPa | 0.03783
371.97 K, 4286 kPa | 0.04983
371.97 K, 4294 kPa | 0.05055
371.97 K, 4312 kPa | 0.05267
371.97 K, 4324 kPa | 0.05459
371.97 K, 4336 kPa | 0.05724
371.97 K, 4342 kPa | 0.05915
371.97 K, 4348 kPa | 0.06124
371.97 K, 4354 kPa | 0.06361
371.97 K, 4362 kPa | 0.0676
371.97 K, 4366 kPa | 0.07025
371.97 K, 4368 kPa | 0.07149
371.97 K, 4370 kPa | 0.07274
371.97 K, 4374 kPa | 0.07488
371.97 K, 4378 kPa | 0.07749
371.97 K, 4380 kPa | 0.07923
371.97 K, 4382 kPa | 0.07986
371.97 K, 4384 kPa | 0.08174
371.97 K, 4386 kPa | 0.08308
371.97 K, 4388 kPa | 0.08481
371.97 K, 4390 kPa | 0.08662
371.97 K, 4392 kPa | 0.08774
371.97 K, 4394 kPa | 0.08968
371.97 K, 4396 kPa | 0.09177
371.97 K, 4398 kPa | 0.09312
371.97 K, 4400 kPa | 0.09429
371.97 K, 4402 kPa | 0.09604
371.97 K, 4404 kPa | 0.09739
371.97 K, 4406 kPa | 0.09807
371.97 K, 4408 kPa | 0.09854
371.97 K, 4410 kPa | 0.09918
371.97 K, 4412 kPa | 0.09961
371.97 K, 4414 kPa | 0.09999
371.97 K, 4416 kPa | 0.1001
371.97 K, 4418 kPa | 0.1001
371.97 K, 4420 kPa | 0.09965
371.97 K, 4425 kPa | 0.09676
371.97 K, 4430 kPa | 0.09369
371.97 K, 4435 kPa | 0.09161
371.97 K, 4440 kPa | 0.08782
371.97 K, 4445 kPa | 0.08423
371.97 K, 4450 kPa | 0.08092
371.97 K, 4455 kPa | 0.07787
371.97 K, 4460 kPa | 0.07642
371.97 K, 4465 kPa | 0.07505
371.97 K, 4475 kPa | 0.07322
371.97 K, 4490 kPa | 0.07226
371.97 K, 4500 kPa | 0.07021
371.97 K, 4505 kPa | 0.06997
371.97 K, 4530 kPa | 0.06877
371.97 K, 4550 kPa | 0.06759
371.97 K, 4570 kPa | 0.06665
371.97 K, 4650 kPa | 0.06636
371.97 K, 4740 kPa | 0.06618
371.97 K, 4850 kPa | 0.06602
371.97 K, 5200 kPa | 0.06643
371.97 K, 5900 kPa | 0.06801
371.97 K, 6400 kPa | 0.06923
371.97 K, 6800 kPa | 0.07002
371.97 K, 7600 kPa | 0.07152
371.97 K, 8810 kPa | 0.07269
371.97 K, 15100 kPa | 0.08067
373.2 K, 3103 kPa | 0.03319
373.2 K, 3450 kPa | 0.03488
373.2 K, 3780 kPa | 0.03746
373.2 K, 3820 kPa | 0.03788
373.2 K, 4030 kPa | 0.04085
373.2 K, 4060 kPa | 0.04149
373.2 K, 4150 kPa | 0.04361
373.2 K, 4230 kPa | 0.04611
373.2 K, 4270 kPa | 0.04756
373.2 K, 4346 kPa | 0.05156
373.2 K, 4384 kPa | 0.05498
373.2 K, 4404 kPa | 0.05788
373.2 K, 4416 kPa | 0.05996
373.2 K, 4428 kPa | 0.0626
373.2 K, 4436 kPa | 0.06499
373.2 K, 4444 kPa | 0.06754
373.2 K, 4450 kPa | 0.06964
373.2 K, 4452 kPa | 0.07037
373.2 K, 4462 kPa | 0.07388
373.2 K, 4466 kPa | 0.07545
373.2 K, 4470 kPa | 0.07719
373.2 K, 4476 kPa | 0.07958
373.2 K, 4482 kPa | 0.08175
373.2 K, 4484 kPa | 0.0824
373.2 K, 4486 kPa | 0.08306
373.2 K, 4494 kPa | 0.08512
373.2 K, 4496 kPa | 0.08547
373.2 K, 4498 kPa | 0.08584
373.2 K, 4500 kPa | 0.0862
373.2 K, 4502 kPa | 0.08638
373.2 K, 4504 kPa | 0.08656
373.2 K, 4506 kPa | 0.08685
373.2 K, 4508 kPa | 0.08693
373.2 K, 4510 kPa | 0.0873
373.2 K, 4518 kPa | 0.08768
373.2 K, 4524 kPa | 0.08658
373.2 K, 4530 kPa | 0.08552
373.2 K, 4536 kPa | 0.08417
373.2 K, 4544 kPa | 0.08185
373.2 K, 4550 kPa | 0.07994
373.2 K, 4556 kPa | 0.07815
373.2 K, 4564 kPa | 0.07643
373.2 K, 4568 kPa | 0.07532
